Reference: patent publication US10357474B2, “Preparation and use of a composition for prevention and mitigation of the effects of radiation” (BioVentures, LLC, priority 2013, dated 2019)

Tests used:
[1] = system: H9c2 heart cardiomyocytes; experiment: Morphology assay of cardiomyocytes exposed to H2O2; format: cell-based, rat
Method: FIG. 3 is a set of photographs showing the cardiomyocytes after the indicated treatments. H9C2 heart cardiomyocytes were treated with 5 μM DT3 or 5 μM DG-3 or vehicle control (DMSO) overnight. Cells were then exposed to H2O2 for 4 h. Morphological changes were recorded under an inverted microscope.
(§1) DG-3, provided herein, is a standardized extract derived from annatto seeds that contains only […] and GT3. Because radiation-induced mitochondrial damage and oxidative stress impacts several critical biologic parameters such as DNA damage repair and stem cell fate, in this research we have compared the effects of DT3, GT3, and DG-3 against radiation induced mitochondrial dysfunction and oxidative stress. […] Furthermore, the same treatment preserved the cell viability and mitochondrial respiration in these cells when followed by oxidative insult via H2O2 treatment. Methods of making DG-3 and methods of using these compositions are provided herein.
H9c2 heart cardiomyocytes were treated with 5 μM DT3 or 5 μM DG-3 or vehicle control (DMSO) overnight. Cells were then exposed to 100 or 200 μM H2O2 for 4 h. Morphological changes were recorded under an inverted microscope.

[2] = system: Wistar rat liver microsomes; experiment: Inhibition of TBHP induced lipid peroxidation in rat liver microsomes; format: biochemical; conditions: rat liver microsomes 1 mg/ml, 1 h pre-incubation at 37° C., 200 μM TBHP for 30 min; read-out: IC50 inhibition of lipid peroxidation (antioxidant potential)
Method: Data are means±SEM of triplicate experiments. One of the most well-known properties of the vitamin E components is their ability to prevent lipid peroxidation. See Traber et al. (2011) Free Radic Biol Med 51(5):1000-1013. Briefly, the antioxidant activity of DG-3 was evaluated in rat liver microsomes by measuring inhibition of lipid peroxidation after TBHP ([…]) treatment. Wistar rat liver microsomes (BD Biosciences) were diluted in phosphate buffer, 0.1 M (pH 7.4), at the final protein concentration of 1 mg/ml. The microsomes were treated with different concentrations of DG-3 or DT3 (diluted with DMSO) and incubated at 37° C. for 1 hour before inducing lipid peroxidation with 200 μM TBHP (DMSO) for 30 min.

[3] = system: H9c2 heart cardiomyocytes; experiment: Cellular bioenergetics measurements (oxygen consumption rate, XF96 Seahorse); format: cell-based, rat; conditions: for Effect of H2O2 treatment on OCR after pre-treatment: 5 μM overnight pre-treatment
Method: H9C2 heart cardiomyocytes were treated with 5 μM DT3 or 5 μM DG-3 or vehicle control (DMSO) overnight. Oxygen Consumption Rates (OCR) were measured and cellular bioenergetics profiles were determined using XF96 Seahorse Extracellular Flux Analyzer.
FIG. 6 is a graph showing the effects of hydrogen peroxide on the OCR of cardiomyocytes after the indicated treatments. H9C2 heart cardiomyocytes were exposed to 50 or 100 μM H2O2 for 4 h. Oxygen Consumption Rates (OCR) were measured and cellular bioenergetics profiles were determined using XF96 Seahorse Extracellular Flux Analyzer.
(§2) FIG. 7 is a graph showing the effects of 50 μM hydrogen peroxide on the OCR of cardiomyocytes after the indicated pre-treatment with DMSO (dimethylsulfoxide vehicle), DT3 or DG-3. Cellular bioenergetic profiles were determined using XF96 Seahorse Extracellular Flux Analyzer.
FIG. 8 is a graph showing the effects of 100 μM hydrogen peroxide on the OCR of cardiomyocytes after the indicated pre-treatment with DMSO (dimethylsulfoxide vehicle), DT3 or DG-3. Cellular bioenergetic profiles were determined using XF96 Seahorse Extracellular Flux Analyzer.
as §2, with “9” for “7”, “6 Gy ionizing radiation” for “50 μM hydrogen peroxide”, “vehicle).” for “vehicle),”, “Analyzer 1 h following radiation exposure.” for “Analyzer.”
Cellular oxygen consumption rates (OCR) were measured at 37° C. using an XF96 extracellular analyzer (Seahorse Bioscience) as previously described (Ferrick D A, Neilson A, and Beeson C. Advances in measuring cellular bioenergetics using extracellular flux. Drug Discov Today 2008; 13: 268-274). Briefly, 10,000 H9C2 cells per well were plated. The cells were treated with 5 μM DT3 or 5 μM DG-3 or vehicle control (DMSO) overnight. Cells were then exposed to 0, 50 or 100 μM H2O2 for 4 h or 6 Gy ionizing radiation (IR). The media in the wells were changed to unbuffered Dulbecco's Modified Eagle Medium (DMEM) supplemented with 4 mM […] and incubated in a non-CO2 incubator for 1 h at 37° C. Three baseline measurements were acquired before injection of mitochondrial inhibitors or uncouplers. Readings were taken after sequential addition of oligomycin (10 μM), FCCP (10 μM), and rotenone/antimycin A (10 μM). OCR was calculated by the Seahorse XF96 software and represents an average of 12-16 measurements.

[4] = system: H9C2 rat heart cardiomyocyte cells; experiment: Total antioxidant capacity (copper reducing equivalents) of cardiomyocytes; format: cell-based; conditions: 5 μM treatment
Excerpt: as §1

[5] = 5 μM treatment followed by H2O2 treatment

## CC(C)=CCC/C(C)=C/CC/C(C)=C/CC[C@]1(C)CCc2cc(O)cc(C)c2O1 [DT3, δ-tocotrienol]
[1]; 5 μM overnight pre-treatment, then 100 μM H2O2 for 4 h
  Morphological changes (cell damage) after H2O2: damage is limited
[1]; 5 μM overnight pre-treatment, then 200 μM H2O2 for 4 h
  Morphological changes (cell monolayer) after H2O2: still maintain a monolayer with only a few rounded cells
[1]; [5]
  Cell viability after oxidative insult via H2O2: preserved
[2]
  IC50: 2.58 µM
[3]; 50 μM H2O2 for 4 h (FIG. 7)
  Effect of H2O2 treatment on OCR after pre-treatment: eliminated
[3]; 100 μM H2O2 for 4 h (FIG. 8)
  Effect of H2O2 treatment on OCR after pre-treatment: significantly reduced
[3]; 5 μM overnight, no H2O2 (FIG. 5)
  Oxygen consumption rate (OCR) compared to controls: modestly improved
[3]; [5]
  Mitochondrial respiration after oxidative insult via H2O2: preserved
[4]
  Total antioxidant capacity (copper reducing equivalents): did not change
